Experimental data: patent US9168259B2 (GRÜNENTHAL GMBH, priority 2010, dated 2015)

Target: T1, KCNQ2/3 channels (Homo sapiens, UniProt O43525+O43526)
T1 construct: expressed in transfected cells
Assay: Fluorescence assay using a voltage sensitive dye (fluorimetry)
Type: cell-based
Conditions: CHO-K1 cells expressing KCNQ2/3; for Emax: CHO-K1, plateau effect relative to saturated retigabine (50 μM) = 100%, negative values = antagonistic, read-out: Fluorimetry % efficacy (retigabine = 100%); for EC50: IC50 where % efficacy is negative, read-out: Fluorimetry EC50/IC50

T1 sequence (O43526 whole entry): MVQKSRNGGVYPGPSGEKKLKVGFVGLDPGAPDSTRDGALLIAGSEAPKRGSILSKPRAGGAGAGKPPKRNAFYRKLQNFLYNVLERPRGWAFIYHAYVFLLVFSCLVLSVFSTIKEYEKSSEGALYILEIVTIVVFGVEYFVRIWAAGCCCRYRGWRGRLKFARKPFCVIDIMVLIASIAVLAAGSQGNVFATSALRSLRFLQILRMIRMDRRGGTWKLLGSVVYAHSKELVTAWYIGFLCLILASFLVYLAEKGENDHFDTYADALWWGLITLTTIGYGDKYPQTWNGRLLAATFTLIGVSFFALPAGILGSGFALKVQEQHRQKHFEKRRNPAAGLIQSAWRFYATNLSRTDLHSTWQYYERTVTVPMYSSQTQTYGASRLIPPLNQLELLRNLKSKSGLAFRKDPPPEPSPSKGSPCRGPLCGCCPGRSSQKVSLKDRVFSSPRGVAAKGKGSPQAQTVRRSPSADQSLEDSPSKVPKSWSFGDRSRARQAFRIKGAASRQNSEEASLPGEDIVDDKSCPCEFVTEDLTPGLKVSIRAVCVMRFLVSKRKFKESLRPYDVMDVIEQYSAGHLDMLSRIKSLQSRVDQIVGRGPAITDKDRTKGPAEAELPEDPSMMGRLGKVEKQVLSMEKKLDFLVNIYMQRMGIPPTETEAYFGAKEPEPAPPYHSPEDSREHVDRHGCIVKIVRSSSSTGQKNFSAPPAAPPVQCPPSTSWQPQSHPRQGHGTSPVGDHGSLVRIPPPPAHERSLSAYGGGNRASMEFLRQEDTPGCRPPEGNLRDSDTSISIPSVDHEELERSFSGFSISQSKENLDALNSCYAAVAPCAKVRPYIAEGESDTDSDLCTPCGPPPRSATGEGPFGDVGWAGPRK
T1 sequence (O43525 whole entry): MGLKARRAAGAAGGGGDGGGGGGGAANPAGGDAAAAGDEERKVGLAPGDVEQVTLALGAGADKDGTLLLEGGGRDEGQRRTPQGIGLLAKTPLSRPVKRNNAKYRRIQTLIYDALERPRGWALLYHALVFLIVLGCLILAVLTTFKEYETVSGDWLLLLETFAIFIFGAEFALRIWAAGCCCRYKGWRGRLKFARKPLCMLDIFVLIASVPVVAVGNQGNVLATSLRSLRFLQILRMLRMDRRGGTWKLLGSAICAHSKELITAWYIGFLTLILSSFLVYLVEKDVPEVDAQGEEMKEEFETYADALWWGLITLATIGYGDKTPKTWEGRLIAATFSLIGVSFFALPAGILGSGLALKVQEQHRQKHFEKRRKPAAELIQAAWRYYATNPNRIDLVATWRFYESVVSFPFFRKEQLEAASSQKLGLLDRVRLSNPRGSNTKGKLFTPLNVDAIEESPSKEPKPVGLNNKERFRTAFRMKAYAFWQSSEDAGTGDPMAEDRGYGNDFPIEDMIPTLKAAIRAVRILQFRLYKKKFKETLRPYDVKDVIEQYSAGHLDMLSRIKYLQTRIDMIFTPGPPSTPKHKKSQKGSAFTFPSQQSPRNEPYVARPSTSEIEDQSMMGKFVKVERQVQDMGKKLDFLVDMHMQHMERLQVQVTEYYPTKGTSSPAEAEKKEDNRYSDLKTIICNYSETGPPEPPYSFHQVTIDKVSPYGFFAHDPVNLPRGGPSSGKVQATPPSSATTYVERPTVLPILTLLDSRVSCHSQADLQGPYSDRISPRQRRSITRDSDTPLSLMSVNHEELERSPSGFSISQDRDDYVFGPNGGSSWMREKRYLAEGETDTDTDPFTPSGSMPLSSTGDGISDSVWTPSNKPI

CCN(C)c1nc(N2CCOCC2)cc(C)c1C(=O)NCCCC(F)(F)F [Example 190, 2-(Ethyl-methyl-amino)-4-methyl-6-morpholin-4-yl-N-(4,4,4-trifluoro-butyl)-pyridine-3-carboxylic acid amide]
Emax: 207%
EC50: 2500 nM

COc1nc(N2CCOCC2)cc(C)c1C(=O)NCCCC(F)(F)F [Example 140, 2-Methoxy-4-methyl-6-morpholin-4-yl-N-(4,4,4-trifluoro-butyl)-pyridine-3-carboxylic acid amide]
Emax: 227%
EC50: 1120 nM

CCSc1nc(N2CCOCC2)cc(C)c1C(=O)NCC1CCCC1 [Example 43, N-(Cyclopentyl-methyl)-2-ethylsulfanyl-4-methyl-6-morpholin-4-yl-pyridine-3-carboxylic acid amide]
Emax: 189%
EC50: 679 nM

Cc1cc(N2CCOC[C@H]2C)nc(C2CC2)c1C(=O)NCCCC(C)(C)C [Example 198, 2-Cyclopropyl-N-(4,4-dimethyl-pentyl)-4-methyl-6-[(3R)-3-methyl-morpholin-4-yl]-pyridine-3-carboxylic acid amide]
Emax: 246%
EC50: 19 nM

CCSc1nc(N2CCOCC2)cc(C)c1C(=O)NCc1cccc(F)c1F [Example 100, N-[(2,3-Difluoro-phenyl)-methyl]-2-ethylsulfanyl-4-methyl-6-morpholin-4-yl-pyridine-3-carboxylic acid amide]
Emax: 98%
EC50: 118 nM

CCC(C)c1nc(N2CCOC[C@H]2C)cc(C)c1C(=O)NCc1ccc(F)cc1 (stereo partly drawn) [Example 194, N-[(4-Fluorophenyl)-methyl]-4-methyl-6-[(3R)-3-methyl-morpholin-4-yl]-2-(1-methyl-propyl)-pyridine-3-carboxylic acid amide]
Emax: 189%
EC50: 31 nM

CCSc1nc(N2CCOC[C@H]2COC)cc(C)c1C(=O)NCc1ccc(F)cc1 [Example 248, 2-Ethylsulfanyl-N-[(4-fluorophenyl)-methyl]-6-[(3R)-3-(methoxymethyl)-morpholin-4-yl]-4-methyl-pyridine-3-carboxylic acid amide]
Emax: 223%
EC50: 313 nM

CSc1nc(N2CCOCC2)cc(C)c1C(=O)NCCCC(F)(F)F [Example 153, 4-Methyl-2-methylsulfanyl-6-morpholin-4-yl-N-(4,4,4-trifluoro-butyl)-pyridine-3-carboxylic acid amide]
Emax: 210%
EC50: 676 nM

CCSc1nc(N2CCN(C)C(=O)C2)cc(C)c1C(=O)NCc1cccc(F)c1 [Example 150, 2-Ethylsulfanyl-N-[(3-fluorophenyl)-methyl]-4-methyl-6-(4-methyl-3-oxo-piperazin-1-yl)-pyridine-3-carboxylic acid amide]
Emax: 98%
EC50: 9650 nM

CCSc1nc(N(C)Cc2ccccn2)cc(C)c1C(=O)NCc1cccc(F)c1 [Example 121, 2-Ethylsulfanyl-N-[(3-fluorophenyl)-methyl]-4-methyl-6-[methyl-(pyridin-2-yl-methyl)-amino]-pyridine-3-carboxylic acid amide]
Emax: 35%

Cc1cc(N2CCOCC2)nc(N(C)C)c1C(=O)NCc1ccc(C(F)(F)F)cc1 [Example 241, 2-Dimethylamino-4-methyl-6-morpholin-4-yl-N-[[4-(trifluoromethyl)-phenyl]-methyl]-pyridine-3-carboxylic acid amide]
Emax: 160%
EC50: 558 nM

CCSc1nc(N2CCOC[C@@H]2C)cc(C)c1C(=O)NCc1cccc(F)c1 [Example 296, 2-Ethylsulfanyl-N-[(3-fluorophenyl)-methyl]-4-methyl-6-[(3S)-3-methyl-morpholin-4-yl]-pyridine-3-carboxylic acid amide]
Emax: 222%
EC50: 189 nM

CSc1nc(N2CCOCC2)cc(C)c1C(=O)NCc1ccc(Cl)cc1 [Example 168, N-[(4-Chlorophenyl)-methyl]-4-methyl-2-methylsulfanyl-6-morpholin-4-yl-pyridine-3-carboxylic acid amide]
Emax: 149%
EC50: 132 nM

CCSc1nc(N2CCO[C@@H](COC)C2)cc(C)c1C(=O)NCc1cccc(F)c1 [Example 223, 2-Ethylsulfanyl-N-[(3-fluorophenyl)-methyl]-6-[(2R)-2-(methoxymethyl)-morpholin-4-yl]-4-methyl-pyridine-3-carboxylic acid amide]
Emax: 137%
EC50: 3660 nM

CCSc1nc(N2CCOCC2)cc(C)c1C(=O)NCc1ccc(F)cc1OC [Example 17, 2-Ethylsulfanyl-N-[(4-fluoro-2-methoxy-phenyl)methyl]-4-methyl-6-morpholin-4-yl-pyridine-3-carboxylic acid amide]
Emax: 21%

CCSc1nc(N2CC(COC)C2)cc(C)c1C(=O)NCc1cccc(F)c1 [Example 239, 2-Ethylsulfanyl-N-[(3-fluorophenyl)-methyl]-6-[3-(methoxymethyl)-azetidin-1-yl]-4-methyl-pyridine-3-carboxylic acid amide]
Emax: 125%
EC50: 1820 nM

CCSc1nc(N2CCN(CC(F)(F)F)CC2)cc(C)c1C(=O)NCc1cccc(F)c1 [Example 251, 2-Ethylsulfanyl-N-[(3-fluorophenyl)-methyl]-4-methyl-6-[4-(2,2,2-trifluoro-ethyl)-piperazin-1-yl]-pyridine-3-carboxylic acid amide]
Emax: 97%
EC50: 1590 nM

CCSc1nc(N2CCCCCC2)cc(C)c1C(=O)NCc1cccc(F)c1 [Example 136, 6-(Azepan-1-yl)-2-ethylsulfanyl-N-[(3-fluorophenyl)-methyl]-4-methyl-pyridine-3-carboxylic acid amide]
Emax: 171%
EC50: 108 nM

Cc1cc(N2CCOCC2)nc(SCC(C)C)c1C(=O)NCc1cccc(F)c1 [Example 62, N-[(3-Fluorophenyl)-methyl]-4-methyl-2-(2-methyl-propylsulfanyl)-6-morpholin-4-yl-pyridine-3-carboxylic acid amide]
Emax: 164%
EC50: 47 nM

COc1nc(N2CCOCC2)cc(C)c1C(=O)NCc1ccc(F)c(F)c1 [Example 87, N-[(3,4-Difluoro-phenyl)-methyl]-2-methoxy-4-methyl-6-morpholin-4-yl-pyridine-3-carboxylic acid amide]
Emax: 138%
EC50: 311 nM

Cc1cc(N2CCOCC2)nc(N(C)C)c1C(=O)NCCCC(C)(C)C [Example 245, 2-Dimethylamino-N-(4,4-dimethyl-pentyl)-4-methyl-6-morpholin-4-yl-pyridine-3-carboxylic acid amide]
Emax: 225%
EC50: 345 nM

CCSc1nc(N2CCC2)cc(C)c1C(=O)NCc1cccc(F)c1 [Example 299, 6-(Azetidin-1-yl)-2-ethylsulfanyl-N-[(3-fluorophenyl)-methyl]-4-methyl-pyridine-3-carboxylic acid amide]
Emax: 104%
EC50: 920 nM

CCN(C)c1nc(N2CCOCC2)cc(C)c1C(=O)NCc1ccc(C(F)(F)F)cc1 [Example 188, 2-(Ethyl-methyl-amino)-4-methyl-6-morpholin-4-yl-N-[[4-(trifluoromethyl)-phenyl]-methyl]pyridine-3-carboxylic acid amide]
Emax: 154%
EC50: 343 nM

CCSc1nc(N2CCOC(C)C2)cc(C)c1C(=O)NCc1cccc(F)c1 (racemic) [Example 48, 2-Ethylsulfanyl-N-[(3-fluorophenyl)-methyl]-4-methyl-6-(2-methyl-morpholin-4-yl)-pyridine-3-carboxylic acid amide]
Emax: 145%
EC50: 217 nM
